These results are taken from ChEMBL document CHEMBL1141205, “Design, synthesis, and evaluation of octahydropyranopyrrole-based inhibitors of mammalian ribonucleotide reductase” (Bioorg Med Chem Lett, 2005).

pIC50: −log10 of the molar value. Active and inactive are the calls of the source. The rule behind the calls is not given here.

For orientation: pIC50 means the negative decadic logarithm of the IC50, by convention in mol/L.

Experiment [1] deals with Ribonucleoside-diphosphate reductase RR1 (Homo sapiens) (UniProt P23921+Q7LG56+P31350). Put plainly: (§1) Inhibition of mammalian ribonucleotide reductase (mRR). The format is protein-complex assay.
For experiment [2], the target named is T1, Ribonucleoside-diphosphate reductase RR1 (Homo sapiens, UniProt P23921+P31350+Q7LG56).
T1 sequence (P23921 whole entry): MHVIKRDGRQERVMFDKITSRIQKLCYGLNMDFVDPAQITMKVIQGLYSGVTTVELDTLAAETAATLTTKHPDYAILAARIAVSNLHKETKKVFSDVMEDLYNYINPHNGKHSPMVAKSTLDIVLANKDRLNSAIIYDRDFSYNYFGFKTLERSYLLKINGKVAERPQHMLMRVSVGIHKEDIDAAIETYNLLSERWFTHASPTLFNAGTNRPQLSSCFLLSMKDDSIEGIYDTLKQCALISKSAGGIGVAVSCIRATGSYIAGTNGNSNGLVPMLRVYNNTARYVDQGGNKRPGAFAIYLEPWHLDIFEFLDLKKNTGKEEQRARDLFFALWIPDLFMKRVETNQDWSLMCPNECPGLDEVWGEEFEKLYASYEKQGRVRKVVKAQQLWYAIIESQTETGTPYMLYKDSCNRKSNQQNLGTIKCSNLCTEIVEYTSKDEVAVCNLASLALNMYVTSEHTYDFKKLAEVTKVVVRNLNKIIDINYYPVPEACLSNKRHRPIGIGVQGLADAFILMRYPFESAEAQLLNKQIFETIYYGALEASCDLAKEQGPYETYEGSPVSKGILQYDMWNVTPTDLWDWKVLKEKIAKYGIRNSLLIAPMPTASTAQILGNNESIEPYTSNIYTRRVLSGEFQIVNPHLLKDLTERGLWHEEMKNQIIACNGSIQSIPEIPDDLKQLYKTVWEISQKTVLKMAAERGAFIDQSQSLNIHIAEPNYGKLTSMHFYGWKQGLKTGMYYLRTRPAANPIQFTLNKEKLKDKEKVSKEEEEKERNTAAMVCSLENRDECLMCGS
T1 sequence (Q7LG56 whole entry): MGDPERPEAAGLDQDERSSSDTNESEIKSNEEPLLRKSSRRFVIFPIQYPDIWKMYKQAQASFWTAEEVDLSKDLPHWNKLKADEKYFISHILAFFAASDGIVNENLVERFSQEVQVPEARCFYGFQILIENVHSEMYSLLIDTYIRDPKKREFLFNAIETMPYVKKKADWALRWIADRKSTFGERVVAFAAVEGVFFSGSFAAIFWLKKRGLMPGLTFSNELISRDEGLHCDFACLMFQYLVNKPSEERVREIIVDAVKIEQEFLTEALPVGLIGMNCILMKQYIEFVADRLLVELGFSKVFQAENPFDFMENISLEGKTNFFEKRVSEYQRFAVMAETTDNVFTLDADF
T1 sequence (P31350 whole entry): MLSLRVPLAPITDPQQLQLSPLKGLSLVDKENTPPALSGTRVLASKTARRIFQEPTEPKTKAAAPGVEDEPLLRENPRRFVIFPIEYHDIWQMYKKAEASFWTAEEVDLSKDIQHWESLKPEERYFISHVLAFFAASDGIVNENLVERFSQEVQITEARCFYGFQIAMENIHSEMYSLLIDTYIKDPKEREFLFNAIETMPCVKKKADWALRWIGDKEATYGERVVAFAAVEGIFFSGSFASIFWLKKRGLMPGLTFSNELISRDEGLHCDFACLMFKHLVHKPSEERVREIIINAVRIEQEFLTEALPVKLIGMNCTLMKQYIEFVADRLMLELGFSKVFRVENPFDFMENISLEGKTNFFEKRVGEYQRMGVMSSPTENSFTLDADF
The description is as §1. The format is protein-complex assay.

For the compound `CC(C)CO[C@@H]1C[C@@H]2[C@@H]([C@@H](COC(=O)COc3ccc4ccccc4c3)O1)N(CC(=O)N[C@@H](CC(=O)O)C(=O)N[C@@H](Cc1ccccc1)C(=O)O)C[C@H]2O`, in experiment [1], the result was inactive.
On the same count and under the same terms, the same measure for `CC(C)CO[C@@H]1C[C@@H]2[C@@H]([C@@H](COC(=O)CCc3ccccc3)O1)N(CC(=O)N[C@@H](CC(=O)O)C(=O)N[C@@H](Cc1ccccc1)C(=O)O)C[C@H]2O`: “Active”.
In experiment [2], `CC(C)CO[C@@H]1C[C@@H]2[C@@H]([C@@H](COC(=O)CCC3c4ccccc4-c4ccccc43)O1)N(CC(=O)N[C@@H](CC(=O)O)C(=O)N[C@@H](Cc1ccccc1)C(=O)O)C[C@H]2O` had a pIC50 of 4.40.
Regarding `CC(C)CO[C@@H]1CC[C@H](N(C)CC(=O)N[C@@H](CC(=O)O)C(=O)N[C@@H](Cc2ccccc2)C(=O)O)[C@@H](COC(=O)CCC2c3ccccc3-c3ccccc32)O1`, in experiment [1], the result was inactive.
The same measure, in the same setting: the same measure for `CC(C)CO[C@@H]1CC[C@H](N(C)CC(=O)N[C@@H](CC(=O)O)C(=O)N[C@@H](Cc2ccccc2)C(=O)O)[C@@H](COC(=O)CCc2ccccc2)O1`: “inactive”.
